# From US20250250537A1, “IN VITRO INSECT FAT CULTIVATION FOR CELLULAR AGRICULTURE APPLICATIONS” (Trustees of Tufts College, priority 2022, published 2025)
# Legend:
# S2 cells = details: 1 mM over 24 hours; cited from earlier work
# Ms PCs = assay: Lipid accumulation screen in Ms PCs (BODIPY and Oil Red O staining, Oil Red O dye elution); type: cell-based, M. sexta; details: 1 mM, 7 days in culture
# Procedure: To screen for lipid accumulation in Ms PCs, cells were seeded at 100,000 cells/cm^2 in 48-well plates. After 24 hours in culture, media was refreshed with growth media supplemented with variable concentrations (0, 0.01, 0.1, 1 mM) of water-soluble oleic acid (01257, Sigma-Aldrich) or Intralipid (I141, Sigma-Aldrich). After seven days in culture, cells were stained with BODIPY ([…], Fisher Scientific) at a 1:2,000 dilution and NucBlue (R37605, Fisher Scientific) or fixed and stained with Oil Red O (O0625, Sigma-Aldrich). Cells were imaged on a fluorescence microscope (BZ-X800, Keyence). To quantify lipid accumulation, Oil Red O dye from each condition was eluted with isopropanol and absorbance (500 nm) was measured on a microplate reader. To investigate lipid accumulation over time, cells were treated with 0.1 mM of Intralipid and stained with BODIPY and NucBlue on days 1, 4, 7 and 14.
smiles,measurement,setting,value
CCCCCCCC/C=C\CCCCCCCC(=O)O [oleic acid],increase in triacylglycerol content,S2 cells,5 fold
same,lipid droplet formation (BODIPY and Oil Red O staining),Ms PCs,visible
same,"morphology, growth and viability of treated cells",Ms PCs,"unhealthy morphology, minimal growth, and were assumed to be nonviable"
